The values that follow come from patent publication US9693554B2, “Plant growth accelerator” (COSMO OIL CO., LTD., priority 2013, dated 2017).

Common to all, as to type: in vivo
The subject of one test is Komatsuna turnip green. The test is described as follows: Growth accelerating effect on Komatsuna turnip green (field grown). The conditions noted are these: 0.06 ppm. As to the method:
Komatsuna turnip green was seeded and grown at a field. The soil used was red clay. The plants were set at 40 to 52 plants/section and 2 to 3 sections/area. A coated fertilizer (containing 13% nitrogen, 11% phosphoric acid and 13% potassium) as a basal fertilizer was applied so that nitrogen was 50 kg per 10 a. 22 days after seeding, 1000 L per 10 a of an aqueous solution containing 0.06 ppm of 5-amino-4-hydroxypentanoic acid was applied twice. 42 days after seeding, the fresh weight of the above-ground part was measured.

A further test relates to Garland chrysanthemum. The test is described as follows: Growth accelerating effect on garland chrysanthemum (pot grown). As to conditions: 200 L per 10 a, applied 4, 5, 6 and 7 weeks after seeding, measured 8 weeks after seeding. On the procedure:
Garland chrysanthemum was seeded in a pot and grown. The soil used was a sterilized compost containing fertilizer components (180 mg/L of nitrogen, 120 mg/L of phosphoric acid, 220 mg/L of potassium). The plants were set at 4 plants/pot and 4 pots/area. 4, 5, 6 and 7 weeks after seeding, 200 L per 10 a of aqueous solutions containing 0.06 ppm or 0.6 ppm of 5-amino-4-hydroxypentanoic acid was applied. 8 weeks after seeding, the fresh weight of the above-ground part was measured.

A further test has as its system Broccoli. The test is described as follows: Growth accelerating effect on broccoli (pot grown). As to conditions: 0.6 ppm. As to the method:
Commercial young plants were settled in a pot and grown. The soil used was a sterilized compost containing fertilizer components (180 mg/L of nitrogen, 120 mg/L of phosphoric acid, 220 mg/L of potassium). The plants were set at 1 plant/pot and 4 pots/area. Every week (2 weeks through 10 weeks) after settling, 200 L per 10 a of an aqueous solution containing 0.6 ppm of 5-amino-4-hydroxypentanoic acid was applied. 11 weeks after settling, the fresh weight of the edible part was measured.

The next test concerns Barley. The test is described as follows: Growth accelerating effect on barley (pot grown). The conditions noted are these: 200 L per 10 a, applied 22 days after seeding, measured 35 days after seeding. As to the method:
Barley was seeded in a pot and grown. The soil used was black soil. The plants were set at 4 plants/pot and 4 to 6 pots/area. A chemical fertilizer (containing 8% of nitrogen, phosphoric acid and potassium respectively) as a basal fertilizer was applied so that each of nitrogen, phosphoric acid and potassium was 5 kg per 10 a. 22 days after seeding, 200 L per 10 a of aqueous solutions containing 0.006 ppm, 0.06 ppm or 0.6 ppm, of 5-amino-4-hydroxypentanoic acid was applied. 35 days after seeding, the plant height, tillering and dry weight of the above-ground part were measured.

In the next test the test system is Radish. The test is described as follows: Growth accelerating effect on radish (pot grown). As to conditions: 200 L per 10 a, applied 15 and 21 days after seeding, measured 28 days after seeding. As to the method:
Radish was seeded in a pot and grown. The soil used was a sterilized compost containing fertilizer components (180 mg/L of nitrogen, 120 mg/L of phosphoric acid, 220 mg/L of potassium). The plants were set at 4 plants/pot and 4 pots/area. 15 days after and 21 days after seeding, 200 L per 10 a of aqueous solutions containing 0.06 ppm or 0.6 ppm of 5-amino-4-hydroxypentanoic acid was applied. 28 days after seeding, the fresh weight of the edible part was measured.

In the case of `NCC(O)CCC(=O)O` (centres unmarked) [5-amino-4-hydroxypentanoic acid], in the test with Komatsuna turnip green (42 days after seeding), the “Increase of fresh weight of the above-ground part compared with the control area” value worked out at 19%. Besides, the “Fresh weight of above-ground part (average)” value was determined as 40.6 g with Komatsuna turnip green (field, 1000 L per 10 a, applied twice, 22 days after seeding, measured 42 days after seeding); 25.5 g in the test with Garland chrysanthemum (0.06 ppm); 24.8 g with Garland chrysanthemum (0.6 ppm). The “Increase of fresh weight of the edible part compared with the control area” value in the test with Broccoli (11 weeks after settling) is recorded as 6%. The “Fresh weight of edible part (average)” value in the test with Broccoli (200 L per 10 a, applied every week (2 through 10 weeks) after settling, measured 11 weeks after settling) was 39.2 g; in the test on Radish (0.06 ppm), 2.26 g; in the test on Radish (0.6 ppm), 2.54 g. Besides, the “Plant length (average)” value amounted to 19.4 cm in the test with Barley (0.006 ppm aqueous solution), 20.1 cm in the test with Barley (0.06 ppm aqueous solution) and 20.2 cm with Barley (0.6 ppm aqueous solution). Further, the “Dry weight of above-ground part (average)” value was determined as 103 mg in the test on Barley (0.006 ppm), 103 mg with Barley (0.06 ppm) and 112 mg with Barley (0.6 ppm). Besides, the results for the “Tillering (average)” value with Barley (0.006 ppm), in the test on Barley (0.06 ppm) and in the test with Barley (0.6 ppm) were 3.50, 3.53 and 3.79, respectively.
